Key:
[1] = biological target: Serine/threonine-protein kinase B-raf (Homo sapiens) (UniProt P15056); assay: Inhibition of recombinant human full length N-terminal GST-tagged BRAF expressed in baculovirus infected Sf9 cells assessed as change in enzyme activity at 1 uM in presence of 1 uM ATP relative to control; design: scale not given: the % may be the effect or the level left
[2] = Volume of distribution at steady state in mouse at 3 mg/kg, iv; assay type: ADME, organism-based; details: in vivo, read-out: Vdss
[3] = Equilibrium aqueous solubility of the compound at pH 4; assay type: physicochemical
Mus musculus = assay: Ex-vivo inhibition of BTK in C57BL/6J mouse assessed as anti-mouse IgD antibody stimulated BCR mediated CD69 level in whole blood isolated from 30 mg/kg, po bid treated mouse measured after 6 hrs post first dose by flow cytometry relative to control; assay type: functional; design: scale not given: the % may be the effect or the level left
[4] = biological target: AMPK alpha2/beta1/gamma1 (Homo sapiens) (UniProt P54646+P54619+Q9Y478); assay: Inhibition of recombinant human full length C-terminal His tagged AMPKalpha2beta1gamma1 expressed in baculovirus infected Sf9 cells assessed as change in enzyme activity at 1 uM in presence of 2 uM ATP relative to control; design: scale not given: the % may be the effect or the level left
[5] = biological target: Mast/stem cell growth factor receptor Kit (Homo sapiens) (UniProt P10721); assay: Inhibition of recombinant human N-terminal GST-tagged c-KIT (544 to end residues) expressed in baculovirus infected Sf9 cells assessed as change in enzyme activity at 1 uM in presence of 2 uM ATP relative to control; design: scale not given: the % may be the effect or the level left
Chain of Mast/stem cell growth factor receptor Kit (Homo sapiens) (P10721 whole entry): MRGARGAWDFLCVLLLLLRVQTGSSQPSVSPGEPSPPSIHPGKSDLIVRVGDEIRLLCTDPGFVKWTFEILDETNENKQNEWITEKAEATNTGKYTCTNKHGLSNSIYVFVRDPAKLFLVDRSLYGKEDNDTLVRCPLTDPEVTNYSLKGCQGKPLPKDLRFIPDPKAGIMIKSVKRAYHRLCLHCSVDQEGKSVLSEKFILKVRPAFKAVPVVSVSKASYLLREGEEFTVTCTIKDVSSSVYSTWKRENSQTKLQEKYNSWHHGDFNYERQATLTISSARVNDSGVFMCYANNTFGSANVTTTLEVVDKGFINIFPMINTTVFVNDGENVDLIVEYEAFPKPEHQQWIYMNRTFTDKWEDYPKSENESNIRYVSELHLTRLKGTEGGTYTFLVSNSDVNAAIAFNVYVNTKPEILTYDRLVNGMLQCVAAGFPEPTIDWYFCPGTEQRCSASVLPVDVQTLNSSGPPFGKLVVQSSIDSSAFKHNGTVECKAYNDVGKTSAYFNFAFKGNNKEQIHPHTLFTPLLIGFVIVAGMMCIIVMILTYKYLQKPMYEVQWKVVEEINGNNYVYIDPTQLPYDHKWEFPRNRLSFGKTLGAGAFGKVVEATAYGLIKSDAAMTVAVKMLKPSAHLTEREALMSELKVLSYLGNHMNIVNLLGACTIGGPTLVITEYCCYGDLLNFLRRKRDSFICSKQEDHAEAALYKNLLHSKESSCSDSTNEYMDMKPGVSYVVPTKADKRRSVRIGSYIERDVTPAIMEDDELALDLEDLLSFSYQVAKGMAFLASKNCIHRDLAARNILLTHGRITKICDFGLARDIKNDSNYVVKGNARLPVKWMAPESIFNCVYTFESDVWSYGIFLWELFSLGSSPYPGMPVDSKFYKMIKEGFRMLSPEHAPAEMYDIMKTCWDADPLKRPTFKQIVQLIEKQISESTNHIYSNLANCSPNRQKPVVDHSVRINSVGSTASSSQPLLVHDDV

[6] = biological target: Ephrin type-A receptor 3 (Homo sapiens) (UniProt P29320); assay: Inhibition of recombinant human N-terminal GST-tagged EPHA3 (571 to end residues) expressed in baculovirus infected Sf9 cells assessed as change in enzyme activity at 1 uM in presence of 2 uM ATP relative to control; design: scale not given: the % may be the effect or the level left
[7] = biological target: Serine/threonine-protein kinase Chk1 (Homo sapiens) (UniProt O14757); assay: Inhibition of recombinant human full length N-terminal GST/His tagged CHK1 expressed in baculovirus infected Sf9 cells assessed as change in enzyme activity at 1 uM in presence of 1 uM ATP relative to control; design: scale not given: the % may be the effect or the level left
[8] = biological target: Glycogen synthase kinase-3 beta (Homo sapiens) (UniProt P49841); assay: Inhibition of recombinant human full length N-terminal GST/His tagged GSK3beta expressed in baculovirus infected Sf9 cells assessed as change in enzyme activity at 1 uM in presence of 1 uM ATP relative to control; design: scale not given: the % may be the effect or the level left
[9] = biological target: Tyrosine-protein kinase JAK2 (Homo sapiens, UniProt O60674); assay: Inhibition of JAK2 (unknown origin)
[10] = biological target: Tyrosine-protein kinase ABL1 (Homo sapiens) (UniProt P00519); assay: Inhibition of recombinant human N-terminal GST-tagged ABL1 (27 to end residues) expressed in baculovirus infected Sf9 cells assessed as change in enzyme activity at 1 uM in presence of 1 uM ATP relative to control; design: scale not given: the % may be the effect or the level left
[11] = biological target: Inhibitor of nuclear factor kappa-B kinase subunit beta (Homo sapiens) (UniProt O14920); assay: Inhibition of recombinant human N-terminal GST-tagged IKKbeta expressed in baculovirus infected Sf9 cells assessed as change in enzyme activity at 1 uM in presence of 1 uM ATP relative to control; design: scale not given: the % may be the effect or the level left
[12] = biological target: High affinity nerve growth factor receptor (Homo sapiens) (UniProt P04629); assay: Inhibition of recombinant human N-terminal GST-tagged TRKA (440 to end residues) expressed in baculovirus infected Sf9 cells assessed as change in enzyme activity at 1 uM in presence of 2 uM ATP relative to control; design: scale not given: the % may be the effect or the level left
[13] = biological target: Protein kinase C (PKC) (Homo sapiens) (UniProt O94806+P41743+P17252+P05129+Q05655+P05771+Q05513+Q02156+P24723+Q15139+Q04759); assay: Inhibition of recombinant human full length N-terminal GST-tagged PKCalpha expressed in baculovirus infected Sf9 cells assessed as change in enzyme activity at 1 uM in presence of 1 uM ATP relative to control; design: scale not given: the % may be the effect or the level left
[14] = biological target: TGF-beta receptor type-2 (Homo sapiens) (UniProt P37173); assay: Inhibition of recombinant N-terminal GST-tagged TGFBR2 (unknown origin) expressed in baculovirus infected Sf9 cells assessed as change in enzyme activity at 1 uM in presence of 1 uM ATP relative to control; design: scale not given: the % may be the effect or the level left
Chain of TGF-beta receptor type-2 (Homo sapiens) (P37173 whole entry, the tested form may be a part): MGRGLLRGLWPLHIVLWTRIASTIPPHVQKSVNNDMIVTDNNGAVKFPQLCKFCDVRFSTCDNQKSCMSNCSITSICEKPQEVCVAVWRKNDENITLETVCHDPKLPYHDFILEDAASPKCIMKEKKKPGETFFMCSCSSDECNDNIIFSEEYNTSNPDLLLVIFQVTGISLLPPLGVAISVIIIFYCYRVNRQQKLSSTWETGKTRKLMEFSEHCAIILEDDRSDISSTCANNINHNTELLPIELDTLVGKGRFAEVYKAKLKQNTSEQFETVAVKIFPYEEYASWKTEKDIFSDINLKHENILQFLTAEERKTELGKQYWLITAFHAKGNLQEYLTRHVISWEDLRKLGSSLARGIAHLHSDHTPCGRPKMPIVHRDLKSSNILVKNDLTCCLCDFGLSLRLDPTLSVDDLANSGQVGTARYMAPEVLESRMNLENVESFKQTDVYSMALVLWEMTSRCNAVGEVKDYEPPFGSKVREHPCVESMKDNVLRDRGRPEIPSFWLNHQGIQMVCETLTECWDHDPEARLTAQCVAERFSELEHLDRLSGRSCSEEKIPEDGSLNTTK

[15] = biological target: Rho-associated protein kinase 1 (Homo sapiens) (UniProt Q13464); assay: Inhibition of recombinant human N-terminal GST-tagged ROCK1 (17 to 535 residues) expressed in baculovirus infected Sf9 cells assessed as change in enzyme activity at 1 uM in presence of 1 uM ATP relative to control; design: scale not given: the % may be the effect or the level left
[16] = biological target: Casein kinase I isoform alpha (Homo sapiens) (UniProt P48729); assay: Inhibition of recombinant human full length N-terminal GST-tagged CK1alpha1 expressed in baculovirus infected Sf9 cells assessed as change in enzyme activity at 1 uM in presence of 1 uM ATP relative to control; design: scale not given: the % may be the effect or the level left
[17] = biological target: Platelet-derived growth factor receptor beta (Homo sapiens) (UniProt P09619); assay: Inhibition of recombinant human full length N-terminal GST-tagged PDGFRbeta (unknown origin) expressed in baculovirus infected Sf9 cells assessed as change in enzyme activity at 1 uM in presence of 1 uM ATP relative to control; design: scale not given: the % may be the effect or the level left
Chain of Platelet-derived growth factor receptor beta (Homo sapiens) (P09619 whole entry): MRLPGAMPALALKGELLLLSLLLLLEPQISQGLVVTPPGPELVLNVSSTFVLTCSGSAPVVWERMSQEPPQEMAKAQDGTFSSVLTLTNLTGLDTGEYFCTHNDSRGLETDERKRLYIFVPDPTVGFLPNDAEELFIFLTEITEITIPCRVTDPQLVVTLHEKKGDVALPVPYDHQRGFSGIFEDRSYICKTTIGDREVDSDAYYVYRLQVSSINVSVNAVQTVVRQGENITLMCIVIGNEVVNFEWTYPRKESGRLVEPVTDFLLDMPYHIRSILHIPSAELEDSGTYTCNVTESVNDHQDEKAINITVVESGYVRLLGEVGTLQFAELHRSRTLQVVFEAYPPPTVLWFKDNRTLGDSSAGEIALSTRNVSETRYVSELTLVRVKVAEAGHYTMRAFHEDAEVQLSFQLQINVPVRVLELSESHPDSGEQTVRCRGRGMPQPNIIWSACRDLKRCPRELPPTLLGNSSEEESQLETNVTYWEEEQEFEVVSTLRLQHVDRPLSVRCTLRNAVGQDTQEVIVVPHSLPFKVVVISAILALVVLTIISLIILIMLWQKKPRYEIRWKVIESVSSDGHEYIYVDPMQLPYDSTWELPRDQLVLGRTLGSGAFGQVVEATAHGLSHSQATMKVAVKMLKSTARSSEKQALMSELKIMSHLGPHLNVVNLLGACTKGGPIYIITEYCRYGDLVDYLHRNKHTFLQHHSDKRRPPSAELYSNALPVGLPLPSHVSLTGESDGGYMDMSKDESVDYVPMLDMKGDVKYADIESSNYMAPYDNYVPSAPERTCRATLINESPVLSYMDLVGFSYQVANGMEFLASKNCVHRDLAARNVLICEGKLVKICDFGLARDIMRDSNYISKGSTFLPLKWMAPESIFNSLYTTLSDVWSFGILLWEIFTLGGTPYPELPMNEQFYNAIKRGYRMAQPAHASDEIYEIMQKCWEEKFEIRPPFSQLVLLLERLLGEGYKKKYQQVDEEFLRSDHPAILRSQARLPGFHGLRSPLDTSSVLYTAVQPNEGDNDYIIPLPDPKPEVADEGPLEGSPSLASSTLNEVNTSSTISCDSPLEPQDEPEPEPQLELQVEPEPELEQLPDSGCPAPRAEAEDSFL

[18] = biological target: Mitogen-activated protein kinase 3 (Homo sapiens) (UniProt P27361); assay: Inhibition of recombinant human full length ERK1 assessed as change in enzyme activity at 1 uM in presence of 1 uM ATP relative to control; design: scale not given: the % may be the effect or the level left
Chain of Mitogen-activated protein kinase 3 (Homo sapiens) (P27361 whole entry): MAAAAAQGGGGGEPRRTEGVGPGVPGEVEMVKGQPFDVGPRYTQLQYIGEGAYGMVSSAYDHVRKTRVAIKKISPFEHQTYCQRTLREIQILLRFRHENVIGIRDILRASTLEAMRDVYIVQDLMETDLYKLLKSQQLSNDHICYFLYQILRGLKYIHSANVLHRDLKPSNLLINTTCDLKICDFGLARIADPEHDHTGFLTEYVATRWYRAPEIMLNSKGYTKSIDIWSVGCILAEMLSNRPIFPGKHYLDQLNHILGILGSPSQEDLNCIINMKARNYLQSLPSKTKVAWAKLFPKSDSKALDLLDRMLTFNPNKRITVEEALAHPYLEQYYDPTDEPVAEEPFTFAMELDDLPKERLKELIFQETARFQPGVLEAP

[19] = biological target: Cytoplasmic tyrosine-protein kinase BMX (Homo sapiens, UniProt P51813); assay: Inhibition of human BMX
Chain of Cytoplasmic tyrosine-protein kinase BMX (P51813 whole entry): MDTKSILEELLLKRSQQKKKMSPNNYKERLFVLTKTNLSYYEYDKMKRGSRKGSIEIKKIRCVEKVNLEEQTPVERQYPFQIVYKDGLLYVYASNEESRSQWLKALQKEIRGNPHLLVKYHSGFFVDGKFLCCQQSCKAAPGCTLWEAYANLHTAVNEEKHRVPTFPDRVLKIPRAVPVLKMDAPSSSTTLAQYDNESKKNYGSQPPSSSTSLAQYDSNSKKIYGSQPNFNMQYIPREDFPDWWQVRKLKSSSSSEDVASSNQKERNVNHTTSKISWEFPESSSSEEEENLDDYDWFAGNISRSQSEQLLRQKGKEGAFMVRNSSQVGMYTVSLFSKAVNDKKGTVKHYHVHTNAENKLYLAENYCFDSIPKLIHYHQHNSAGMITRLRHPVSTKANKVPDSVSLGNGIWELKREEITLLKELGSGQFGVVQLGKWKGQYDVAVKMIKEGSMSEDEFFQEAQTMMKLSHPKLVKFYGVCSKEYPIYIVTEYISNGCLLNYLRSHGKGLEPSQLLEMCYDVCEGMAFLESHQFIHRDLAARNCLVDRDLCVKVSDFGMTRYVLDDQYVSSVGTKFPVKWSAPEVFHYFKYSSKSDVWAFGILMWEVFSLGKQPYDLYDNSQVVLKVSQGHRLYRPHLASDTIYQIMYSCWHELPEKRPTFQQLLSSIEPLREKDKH

[20] = biological target: Aurora kinase A (Homo sapiens) (UniProt O14965); assay: Inhibition of recombinant full length N-terminal GST-tagged AURORA A (unknown origin) expressed in baculovirus infected Sf9 cells assessed as change in enzyme activity at 1 uM in presence of 2 uM ATP relative to control; design: scale not given: the % may be the effect or the level left
[21] = biological target: RAC-alpha serine/threonine-protein kinase (Homo sapiens) (UniProt P31749); assay: Inhibition of recombinant human full length N-terminal GST-tagged AKT1 expressed in baculovirus infected Sf9 cells assessed as change in enzyme activity at 1 uM in presence of 2 uM ATP relative to control; design: scale not given: the % may be the effect or the level left
Chain of RAC-alpha serine/threonine-protein kinase (Homo sapiens) (P31749 whole entry): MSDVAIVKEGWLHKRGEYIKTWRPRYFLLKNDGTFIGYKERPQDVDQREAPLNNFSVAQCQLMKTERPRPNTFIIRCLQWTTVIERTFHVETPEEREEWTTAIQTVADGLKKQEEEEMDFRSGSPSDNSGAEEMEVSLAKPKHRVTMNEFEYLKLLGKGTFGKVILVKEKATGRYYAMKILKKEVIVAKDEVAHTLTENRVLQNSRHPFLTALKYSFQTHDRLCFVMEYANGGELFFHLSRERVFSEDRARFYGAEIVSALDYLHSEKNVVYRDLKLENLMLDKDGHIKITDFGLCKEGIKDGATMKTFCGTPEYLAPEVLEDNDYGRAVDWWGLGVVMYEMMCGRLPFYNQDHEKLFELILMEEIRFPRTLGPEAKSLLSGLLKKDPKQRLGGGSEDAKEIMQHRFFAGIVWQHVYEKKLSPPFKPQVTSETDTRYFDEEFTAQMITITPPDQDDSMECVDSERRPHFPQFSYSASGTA

[22] = biological target: Tyrosine-protein kinase BTK (Mus musculus, UniProt P35991); assay: Inhibition of C57BL/6J mouse BTK assessed as decrease in anti-mouse IgM antibody stimulated BCR mediated CD69 upregulation preincubated for 30 mins followed by antibody challenge after 18 to 24 hrs by flow cytometry
Chain of Tyrosine-protein kinase BTK (P35991 whole entry): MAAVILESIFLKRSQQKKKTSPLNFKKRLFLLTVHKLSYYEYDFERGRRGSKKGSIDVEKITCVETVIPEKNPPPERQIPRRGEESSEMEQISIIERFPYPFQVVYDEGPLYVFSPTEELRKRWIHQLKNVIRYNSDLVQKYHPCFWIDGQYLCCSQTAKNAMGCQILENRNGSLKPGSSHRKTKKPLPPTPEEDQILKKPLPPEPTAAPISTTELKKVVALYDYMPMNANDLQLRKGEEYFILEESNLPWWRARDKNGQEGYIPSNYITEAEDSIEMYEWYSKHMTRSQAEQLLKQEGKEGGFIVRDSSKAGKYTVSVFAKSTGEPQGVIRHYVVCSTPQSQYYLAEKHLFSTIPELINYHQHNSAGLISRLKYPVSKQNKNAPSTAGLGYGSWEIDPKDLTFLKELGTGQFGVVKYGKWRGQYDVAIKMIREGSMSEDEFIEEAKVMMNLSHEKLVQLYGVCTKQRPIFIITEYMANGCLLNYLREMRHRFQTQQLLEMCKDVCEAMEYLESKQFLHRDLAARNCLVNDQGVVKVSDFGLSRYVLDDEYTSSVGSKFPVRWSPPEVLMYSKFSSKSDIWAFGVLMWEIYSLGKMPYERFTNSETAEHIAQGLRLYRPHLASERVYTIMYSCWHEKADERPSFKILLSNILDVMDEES

[23] = Cmax in mouse at 10 mg/kg, po; assay type: ADME, organism-based; design: dose 10 mg/kg, route oral; details: in vivo
[24] = biological target: Homeodomain-interacting protein kinase 4 (Homo sapiens) (UniProt Q8NE63); assay: Inhibition of recombinant human full length N-terminal GST-tagged HIPK4 expressed in baculovirus infected Sf9 cells assessed as change in enzyme activity at 1 uM in presence of 2 uM ATP relative to control; design: scale not given: the % may be the effect or the level left
[25] = biological target: Mitogen-activated protein kinase kinase kinase 1 (Homo sapiens) (UniProt Q13233); assay: Inhibition of recombinant human N-terminal GST-tagged MEKK1 ([…] residues) expressed in baculovirus infected Sf9 cells assessed as change in enzyme activity at 1 uM in presence of 2 uM ATP relative to control; design: scale not given: the % may be the effect or the level left

Row | Activity [1] | Vd [2] | solubility thermodynamic [3] | Activity [4] | Activity [5] | Activity [6] | Activity [7] | Activity [8] | IC50 [9] | Activity [10] | Activity [11] | Activity [12] | Activity [13] | Activity [14] | Activity [15] | Activity [16] | Activity [17] | Activity [18] | IC50 [19] | Compound | Activity (Mus musculus) | further results
1 | -6% | 0.6 L/kg | > 2000 µM | 1% | 0% | -3% | -3% | -2% | > 10000 nM | -16% | 1% | -10% | -1% | 3% | 3% | 0% | -3% | 1% | 4680 nM | O=C1c2c(F)cc(C3CC3)cc2OCCN1c1cccc(-c2ccnc3[nH]c(C4=CCN(C5COC5)CC4)cc23)c1CO | 56% | Activity [20]: -10%; Activity [21]: -3%; IC50 [22]: 41.9 nM; Cmax [23]: 7.6 µM; Activity [24]: 3%; Activity [25]: 3%
2 | 1% | 1.9 L/kg | > 2000 µM | 2% | -1% | -2% | -14% | 2% | > 10000 nM | -41% | 0% | -4% | -1% | 2% | -4% | -1% | 2% | 2% | 1550 nM | CCN1CCN(Cc2ccc(-c3cc4c(-c5cccc(N6CCOc7cc(C8CC8)cc(F)c7C6=O)c5CO)ccnc4[nH]3)nc2)CC1 | 81% | Activity [20]: -2%; Activity [21]: -15%; IC50 [22]: 8.4 nM; Cmax [23]: 2.3 µM; Activity [24]: 1%; Activity [25]: 2%
